Measurements: patent US20220062262A1, “GSNO REDUCTASE INHIBITOR AS AN ADJUNCT THERAPY WITH REMOTE ISCHEMIC CONDITIONING AND THROMBOLYTIC REPERFUSION THERAPIES IN STROKE” (KING ABDULAZIZ UNIVERSITY, priority 2020, published 2022)

How the values were obtained:
[1] = system: iNOS, iCAM-1, IL-1β, IL-6 expression; assay: Brain inflammatory gene expression (RT-PCR) after tMCAo in STZ-induced diabetic mice; assay type: in vivo
Description: Mice were immediately sacrificed after PbtO2 measurement and brain tissue samples were analyzed for inflammatory gene expression (N=6/gp). RT-PCR primers shown in Table 1 were used to measure changes in expression of iNOS (FIG. 11A), iCAM-1 (FIG. 11B), IL-1(3 (FIG. 11C) and IL-6 (FIG. 11D). The result for each inflammatory gene was normalized to expression of β-actin and expressed as a fold change.

[2] = system: tMCAo stroke in STZ-induced diabetic mice; assay: Reperfused tMCAo stroke model in STZ-induced diabetic male mice, with or without RIC therapy; assay type: in vivo; conditions: for brain tissue oxygenation (PbtO2): 6 h post-reperfusion; for % infarct volume / % swelling / mean NDS: 24 h post-stroke
Excerpt: The tMCAo surgical procedure is similar to TE-stroke surgery, however, the transient occlusion is achieved using a suture instead of a clot as reported by Hoda et al (supra). Briefly, a 6-0 monofilament suture with ˜3-mm silicone-coated tip designed to induce tMCAo in mice (Doccol Corp, USA) was introduced into the ICA via an ECA stump, directed and gently advanced into the MCA region until the suture was wedged to occlude the proximal stem of MCA. The occlusion was maintained prior to withdrawing the filament after […], the ECA- arteriotomy was ligated and the reperfusion was allowed following suture withdrawal. The sham-operated group underwent similar procedures without occlusion, and mice recovered as above.
TTC is a white powder and the solution remains colorless, which is reduced to red 1,3,5-triphenylformazan (TPF) by the enzymatic action of various dehydrogenases primarily mitochondrial dehydrogenase from the living tissues, while the core remains as white. Therefore, larger white area indicates higher injury and infarction volume. After performing ATT, mice were overdosed and deeply anesthetized with high isofluorane (5%). Brains were very quickly perfused with cold 25 ml of 0.01 M phosphate-buffered saline (PBS), harvested fresh and immediately placed in a metallic mouse brain matrix. Looking at the infarcted area, 5 blades were placed in alternate gaps to cut and obtain […] coronal slices. Sections were individually placed in a 35-mm dish containing pre-warmed (37° C.) 3-ml of 5% TTC in PBS (Sigma) for 20-25 minutes at 37° C., followed by 2× washing with cold PBS and fixation with 10% formalin. In order to image, fixed sections were taken out of the dish and placed in order on a high-resolution Cannon Scanner. After scanning, images were cropped and saved for analysis. Corrected infarct volume was estimated using gray scale image and Scion Image software and presented as the Corrected % infarct volume normalized to the uninjured side.
Diabetes was induced in adult male mice (14±1 weeks of age) as confirmed after 7 days of STZ-injection, followed by tMCAo stroke surgery at 3 weeks post-STZ injection. Stroke was induced with 60-min suture occlusion followed by reperfusion with suture withdrawal. GRI therapy or vehicle was IV-infused 10-min prior to reperfusion and RIC therapy/ RIC-mock was performed 1 h after reperfusion. […] PbtO2 was measured at 6h post-reperfusion (N=6/gp) using a 50-um thick oxygen sensor integrated to an UniAmp multi-channel system (Unisense, Denmark). Measurement signal was averaged for 3 min during a period of stable output as shown in the representative real-time electrogram traces in FIGS. 9A-9D. FIG. 9A is representative of a mouse treated with vehicle and receiving mock RIC. FIG. 9B is representative of a mouse receiving vehicle and RIC therapy. FIG. 9C is representative of a mouse receiving GRI therapy and mock RIC. FIG. 9D is representative of a mouse receiving GRI therapy and RIC therapy.
Diabetic adult male mice (as described in Example 4) were subjected to tMCAo (N=10/gp) with or without GRI and/or RIC-therapies and outcome measures were performed at 24h post-stroke.

[3] = low-dose GRI combined with RIC therapy, vs all other 3 groups

Cc1cc(C(N)=O)ccc1-n1c(CCC(=O)O)ccc1-c1ccc(-n2ccnc2)cc1 [GRI therapy, N6022]
inflammatory gene expression in brain (fold change, normalized to β-actin) ([1]; GRI alone vs vehicle-treated stroke group, after PbtO2 measurement at 6 h post-reperfusion): showed a trend only to downregulate most inflammatory genes and were not significantly different from the vehicle-treated stroke group | inflammatory gene expression in brain (fold change, normalized to β-actin) ([1]; GRI prior to RIC therapy vs RIC therapy alone): significantly downregulated and prevented RIC-induced inflammatory responses | brain tissue oxygenation (PbtO2) ([2]; GRI IV 10 min prior to reperfusion followed by RIC therapy 1 h after reperfusion): showed enhanced efficacy of both, GRI and RIC-therapies, in improving benefits of reperfusion to increase PbtO2 | brain tissue oxygenation (PbtO2) ([2]; GRI alone (RIC-mock), IV 10 min prior to reperfusion, vs vehicle RIC-mock): improved PbtO2 significantly | % infarct volume ([2]; GRI singly (RIC-mock), N=10/gp): did not improve | % swelling ([2]; GRI singly (RIC-mock), N=10/gp): did not improve | mean NDS ([2]; GRI singly (RIC-mock), N=10/gp): did not improve | % infarct volume [2, 3]: significantly improved | % swelling [2, 3]: significantly improved | mean NDS [2, 3]: significantly improved
